From ChEMBL document CHEMBL1201862, “PubChem BioAssay data set” (2004)
Activity calls are given as the source filed them.

What was measured:
Cytochrome P450 1A2 = molecular target: T1, Cytochrome P450 1A2 (Homo sapiens, UniProt P05177);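 also: PubChem cytochrome P450 panel assay, CYP1A2 panel member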
T1 sequence (P05177 whole entry): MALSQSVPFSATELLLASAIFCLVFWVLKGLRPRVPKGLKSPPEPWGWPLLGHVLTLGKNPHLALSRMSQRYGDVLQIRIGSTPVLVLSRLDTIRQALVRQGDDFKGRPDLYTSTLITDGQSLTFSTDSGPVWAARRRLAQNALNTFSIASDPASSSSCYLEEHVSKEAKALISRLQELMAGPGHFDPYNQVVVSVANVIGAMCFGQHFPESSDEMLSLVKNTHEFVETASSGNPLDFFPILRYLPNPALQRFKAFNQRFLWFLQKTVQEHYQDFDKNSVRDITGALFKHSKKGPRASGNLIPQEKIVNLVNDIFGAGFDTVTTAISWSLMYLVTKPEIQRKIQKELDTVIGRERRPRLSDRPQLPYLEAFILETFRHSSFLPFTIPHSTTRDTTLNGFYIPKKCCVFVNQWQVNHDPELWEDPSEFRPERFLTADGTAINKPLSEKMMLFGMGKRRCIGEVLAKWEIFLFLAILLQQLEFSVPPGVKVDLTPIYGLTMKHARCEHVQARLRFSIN

Cytochrome P450 3A4 = Cytochrome P450 3A4 (Homo sapiens, UniProt P08684);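 also: CYP3A4 tested as one member of a cytochrome P450 panel screen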
Cytochrome P450 3A4, sequence (P08684 whole entry): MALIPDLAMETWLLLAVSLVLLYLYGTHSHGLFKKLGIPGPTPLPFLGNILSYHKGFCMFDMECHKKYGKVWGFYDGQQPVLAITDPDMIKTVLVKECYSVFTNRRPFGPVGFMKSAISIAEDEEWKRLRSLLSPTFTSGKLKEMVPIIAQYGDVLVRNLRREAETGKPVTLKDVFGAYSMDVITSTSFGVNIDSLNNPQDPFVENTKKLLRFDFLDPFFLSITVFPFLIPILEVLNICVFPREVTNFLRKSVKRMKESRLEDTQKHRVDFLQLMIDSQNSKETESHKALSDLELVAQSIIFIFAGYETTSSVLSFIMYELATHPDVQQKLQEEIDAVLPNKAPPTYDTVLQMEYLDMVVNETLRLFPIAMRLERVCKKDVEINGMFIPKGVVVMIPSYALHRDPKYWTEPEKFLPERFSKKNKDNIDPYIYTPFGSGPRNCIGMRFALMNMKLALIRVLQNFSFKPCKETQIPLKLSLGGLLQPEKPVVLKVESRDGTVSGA

Cytochrome P450 2C9 = Cytochrome P450 2C9 (Homo sapiens, UniProt P11712)
Cytochrome P450 2C9, sequence (P11712 whole entry): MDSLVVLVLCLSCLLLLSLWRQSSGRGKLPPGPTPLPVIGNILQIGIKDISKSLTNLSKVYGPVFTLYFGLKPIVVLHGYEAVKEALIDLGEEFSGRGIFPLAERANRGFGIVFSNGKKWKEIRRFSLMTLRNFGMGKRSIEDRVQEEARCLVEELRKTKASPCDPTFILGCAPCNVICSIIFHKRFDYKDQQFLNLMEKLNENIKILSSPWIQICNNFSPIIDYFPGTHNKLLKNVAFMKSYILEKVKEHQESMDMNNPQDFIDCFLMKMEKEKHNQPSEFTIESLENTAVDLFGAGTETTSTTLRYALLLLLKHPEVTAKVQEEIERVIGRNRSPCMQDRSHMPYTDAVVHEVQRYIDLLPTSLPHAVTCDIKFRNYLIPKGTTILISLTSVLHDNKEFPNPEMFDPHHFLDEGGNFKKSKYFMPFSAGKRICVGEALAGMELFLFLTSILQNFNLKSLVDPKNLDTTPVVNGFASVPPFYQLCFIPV

Cytochrome P450 2D6 = Cytochrome P450 2D6 (Homo sapiens, UniProt P10635);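 also: CYP2D6 member of a cytochrome P450 panel assay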
Cytochrome P450 2D6, sequence (P10635 whole entry): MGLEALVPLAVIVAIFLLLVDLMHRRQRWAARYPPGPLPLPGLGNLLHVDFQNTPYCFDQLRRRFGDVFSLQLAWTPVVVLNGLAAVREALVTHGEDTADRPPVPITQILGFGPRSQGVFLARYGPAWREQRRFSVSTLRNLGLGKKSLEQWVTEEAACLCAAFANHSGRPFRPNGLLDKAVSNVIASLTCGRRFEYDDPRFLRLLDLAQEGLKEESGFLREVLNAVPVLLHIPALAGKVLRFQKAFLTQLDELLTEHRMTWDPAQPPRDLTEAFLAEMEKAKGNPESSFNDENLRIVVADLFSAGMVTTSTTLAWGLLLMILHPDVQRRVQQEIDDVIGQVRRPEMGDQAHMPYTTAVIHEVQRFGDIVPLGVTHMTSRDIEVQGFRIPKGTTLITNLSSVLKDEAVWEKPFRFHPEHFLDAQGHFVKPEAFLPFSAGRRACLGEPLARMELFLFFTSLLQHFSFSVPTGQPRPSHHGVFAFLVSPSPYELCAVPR

HeLa = test: HeLa cell cytotoxicity, dose response, cytotoxicity control for MITF activator project, CellTiter-Glo luminescence, cherry-pick samples (AID 540259); assay type: functional, cell-based; details: Homo sapiens
[1] = molecular target: T2, Carboxy-terminal domain RNA polymerase II polypeptide A small phosphatase 1 (Homo sapiens, UniProt Q9GZU7); test: inhibitors of CTDSP1, concentration-response testing, biochemical assay, absorbance-based, actives from ultra-high-throughput screening (AID 540297); assay type: functional
T2 sequence (Q9GZU7 whole entry): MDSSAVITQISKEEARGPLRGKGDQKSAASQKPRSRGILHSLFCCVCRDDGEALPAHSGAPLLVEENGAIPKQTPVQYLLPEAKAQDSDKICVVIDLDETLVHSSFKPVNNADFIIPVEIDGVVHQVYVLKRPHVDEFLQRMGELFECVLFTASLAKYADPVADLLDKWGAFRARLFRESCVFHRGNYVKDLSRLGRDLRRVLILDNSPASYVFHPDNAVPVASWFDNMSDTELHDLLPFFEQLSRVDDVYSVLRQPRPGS

[2] = NIH-3T3 fibroblast cytotoxicity, dose response, cytotoxicity control, cell-based, fluorescence, Alamar Blue, secondary assay (AID 2327); assay type: functional;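 also: NIH-3T3 mouse fibroblasts cultured with fluconazole at 8 µg/mL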
[3] = C. albicans growth with fluconazole, confirmation, fluorescence, retest (AID 2467); assay type: functional, cell-based
[4] = molecular target: Dual specificity tyrosine-phosphorylation-regulated kinase 1A (Rattus norvegicus, UniProt Q63470); assay type: biochemical, Homo sapiens
[5] = Luminescence Cell-Based Dose Response HTS to Identify Activators of Luciferase Translation or Activity in H4 […] Cells. [Related pubchem assays: 1829 (Project Summary), 1814 (Primary HTS)]; assay type: functional
H4 = test: Luminescence Cell-Based Dose Response HTS to Identify Activators of 5'UTR Stem-Loop Driven Prion Protein mRNA Translation in H4 Neuroglioblastoma Cells. [Related pubchem assays: 1829 (Project Summary), 1814 (Primary HTS)]; assay type: functional; details: Homo sapiens
Escherichia coli = test: microbe, parasite or virus in culture
[6] = molecular target: Induced myeloid leukemia cell differentiation protein Mcl-1 (Homo sapiens, UniProt Q07820); assay type: functional
Induced myeloid leukemia cell differentiation protein Mcl-1, sequence (Q07820 whole entry): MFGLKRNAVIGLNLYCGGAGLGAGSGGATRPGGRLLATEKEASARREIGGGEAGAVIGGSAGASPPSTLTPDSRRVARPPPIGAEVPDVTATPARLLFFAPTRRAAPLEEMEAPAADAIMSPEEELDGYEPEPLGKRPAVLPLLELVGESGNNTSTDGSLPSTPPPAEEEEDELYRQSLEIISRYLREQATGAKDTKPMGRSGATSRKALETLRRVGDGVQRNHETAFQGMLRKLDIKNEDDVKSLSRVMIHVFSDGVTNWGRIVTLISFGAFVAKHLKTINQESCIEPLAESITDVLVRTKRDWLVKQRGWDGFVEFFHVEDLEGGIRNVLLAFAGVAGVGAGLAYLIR

[7] = THP-1 cell cytotoxicity, dose response, cytotoxicity control for Vif-APOBEC3G degradation inhibitor project, THP-1 cells (AID 1117359); assay type: functional; details: Human immunodeficiency virus 1, THP-1
[8] = Luminescence Cell-Based Dose Retest to Confirm Inhibitors of Cancer Stem Cells. [Related pubchem assays (depositor defined):AID2717, AID2721]; assay type: functional; details: Homo sapiens
INS1 = test: beta cell apoptosis inhibitors, cytokine rescue, dose response, luminescence, retest (AID 449756); assay type: functional, cell-based; details: Rattus norvegicus;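 also: cell death triggered by IL-1 beta plus TNF-alpha plus IFN-gamma mixture; protective hits raise ATP signal compared with cytokine alone wells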
[9] = Fluorescence-based cell-based high throughput dose response assay for inhibitors of the interaction of nucleotide-binding oligomerization domain containing 2 (NOD2) and the receptor-interacting serine-threonine kinase 2 (RIPK2).; assay type: functional; details: Homo sapiens
[10] = HEp-2 cell cytotoxicity, dose response, cytotoxicity control for RSV inhibitor project, HTS (AID 2410); assay type: functional; details: human respiratory syncytial virus
[11] = intracellular Trypanosoma cruzi inhibitors in host cells – cell-based, plate reader, cherry-pick samples, set 3, dose response (AID 651818); assay type: functional;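 also: compounds incubated with infected cells for about four days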
[12] = cytotoxicity in HEK-293T cells, dose response, cytotoxicity control for BCR NF-kB inhibitor project, luminescence, B-cell screen hits (AID 489021); assay type: functional, cell-based;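 also: HEK-293T cells carrying an NF-kB luciferase reporter; cells exposed to compound for about 14 hours before viability readout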
cells [13] = assay type: functional, cell-based
cells [14] = assay type: functional, cell-based; remark: listed apart in the source

Cc1cc2ccccc2nc1SCC(=O)Nc1nc(-c2ccccc2)cs1
AC50 (Cytochrome P450 1A2): 0.2 µM (inconclusive)
AC50 (Cytochrome P450 3A4): 0.178 µM (inconclusive)
AC50 (Cytochrome P450 2C9): 1.12 µM (inconclusive)
AC50 (Cytochrome P450 2D6): inconclusive

O=C(NCCc1c[nH]c2ccccc12)c1cc(Cl)c2c(c1)OCO2
AC50 (HeLa): 70.3 µM (active)

CCOC(=O)C1(C)C(C(=O)OC)=C(c2ccc(OC)cc2)c2ccccc2N1C(=O)OC (stereo not given)
IC50 [1]: 29.5 µM (active)

Nc1nn2c(O)cc(-c3ccccc3)nc2c1N=Nc1ccc(S(N)(=O)=O)cc1
EC50 [2]: > 160 µM (inactive)
EC50 [3]: > 38 µM (not active)
AC50 [4]: 1.3 µM (active)

COc1ccc(-c2nnn(Cc3ccccc3F)n2)cc1
EC50 [5]: 1.75 µM (active)
EC50 (H4): 44.6 µM (inconclusive)
AC50 (HeLa): 60.2 µM (active)

Cc1ccc(-c2cc(C(F)F)n3ncc(C(=O)Nc4ccc(S(=O)(=O)Nc5ccccc5C)cc4)c3n2)cc1
AC50 (Escherichia coli): 21.5 µM (active)

COc1cc(/C=C(\C#N)c2nn(CCO)c(N)c2C#N)cc(OC)c1OC
AC50 (Escherichia coli): 29 µM (active)

CC(=O)c1ccc(NC(=O)CSc2nnc(-c3ccco3)c(-c3ccco3)n2)cc1
IC50 [6]: 8.94 µM (active)
IC50 [1]: 3.88 µM (active)
CC50 [7]: > 40 µM (active)

CCCCNc1c(-c2ccc(-c3cccc(Cl)c3)cc2)nc2ccccn12
AC50 [8]: 3.86 µM (active)
AC50 (INS1): 6.04 µM (active)
AC50 (HeLa): 32.4 µM (active)

CCC(=O)Nc1ccc(C(=O)Cn2ncc(Cl)c(Cl)c2=O)cc1
AC50 [8]: 5.04 µM (active)
IC50 [9]: 6.53 µM (active)

CCCCSc1nc2c(c(=O)[nH]c(=O)n2C)n1CCc1ccccc1
AC50 (Escherichia coli): 50.8 µM (active)

CN(CCC#N)C(=O)c1cc2c(s1)-c1ccccc1SC2
CC50 [10]: 28 µM (active)
AC50 (HeLa): 63.4 µM (active)

CC(=O)O[C@H](COc1c2ccoc2cc2oc(=O)ccc12)C(C)(C)O
AC50 [4]: 3.74 µM (active)

C[C@H]1CN([C@@H](C)CO)C(=O)Cc2cc(NS(=O)(=O)c3ccc(Cl)cc3)ccc2O[C@H]1CN(C)CC1CCCCC1
AC50 [11]: 5.05 µM (active)

C[C@@H]1CN([C@H](C)CO)C(=O)c2cccc(NC(=O)c3cnccn3)c2O[C@@H]1CN(C)Cc1ccc(C(=O)Nc2ccccc2N)cc1
AC50 [11]: 3.06 µM (active)

C[C@@H]1CCCCO[C@@H](CN(C)Cc2ccc(C(=O)Nc3ccccc3N)cc2)[C@@H](C)CN([C@H](C)CO)C(=O)c2cc(NC(=O)Nc3ccc(C(F)(F)F)cc3)ccc2O1
AC50 [11]: 0.554 µM (active)

C[C@@H]1CN([C@@H](C)CO)C(=O)Cc2cc(NC(=O)Nc3ccc(C(F)(F)F)cc3)ccc2O[C@@H]1CN(C)S(=O)(=O)c1cccs1
AC50 [11]: 3.54 µM (active)

CCOc1ccc(/C=C2\SC(=S)N(CCC(=O)Nc3cccc(C(=O)O)c3)C2=O)cc1
IC50 [12]: > 80 µM (inactive)
IC50 [1]: 3.77 µM (active)

C[C@@H]1O[C@@H](OC[C@H]2O[C@@H](Oc3c(-c4ccc(O)cc4)oc4cc(O)cc(O)c4c3=O)[C@H](O)[C@@H](O)[C@@H]2O)[C@H](O)[C@H](O)[C@H]1O [NICOTIFLOROSIDE]
EC50 (cells [13]): > 350 µM (not active)
EC50 (cells [14]): > 350 µM (not active)
AC50 [4]: 7.78 µM (active)
